Laboratory results: patent US20210292347A1, “DIHETEROCYCLIC TRIAZINONE NUCLEOSIDE ANALOGS AND THEIR USE FOR MEDICATION” (priority 2020, published 2021)
Values after ≈ are worked out from the molar mass of the structure shown. “Also recorded” adds a separate entry of the source. Where two headings read alike, the source gives them in different places.

How the values were obtained:
mice sarcoma S180 = test: Growth inhibition of S180 sarcoma in mice; assay type: in vivo, Kunming healthy mice; settings: for in-vivo anti-tumor efficacy, statistical significance (in words): S180 sarcoma in mice, doses and routes of Table 3
[1] = tested on: human lung cancer cell line NCI-H460; test: cells; assay type: cell-based; settings: for IC50: Homo sapiens; for inhibitory effect on NCI-H460 cells (in words): lung cancer
Protocol: (§1) Cell lines: Human pancreatic cancer cell line Panc-1, human colorectal cancer cell line HT29, human lung cancer cell line NCI-H460 and human breast cancer cell line MCF7; the medium: s DMEM (Gibco BRL), containing 10% fetal calf serum (Gibco BRL) and 2 mM L-glutamine (Gibco BRL).
(§2) Test samples: example compounds 7, 15, 82, 89, 116 and 135. The samples were dissolved in dimethyl sulfoxide (DMSO, Sigma, United States) and medium was added to the final concentration of 0.5%. Cyclophosphamide ware as positive control (Aldrich, United States, purity>96%).
(§3) General Method: cells were digested with trypsin and dispersed into single cells in the medium containing penicillin (25 U/ml) and streptomycin (25 μg/mL). The cells were seeded in 96-well culture plates (Corning Incorporated), at 37° C., with 5% CO2 present for 24 hours. The culture medium was removed, […] test compounds were added, cultured for 48 hours. Culture medium was removed and […] (MTT, USA Sigma products) was added. The result was assayed by SK601-based microplate reader (Japan Seikagaku company's products), 570 nm/630 nm optical density (OD). Cell viability determined by the formula: (Experimental group OD/control OD)×100%; CTX and the positive control subjects treated in the same material simultaneously.

[2] = tested on: human breast cancer cell line MCF7; test: cells; assay type: cell-based
Protocol: as §1, §2, §3

[3] = tested on: Human pancreatic cancer cell line Panc-1; test: cells; assay type: cell-based; settings: for IC50: Homo sapiens, PANC-1, MTT, 48 hours, read-out: IC50 and 95% confidence limit, anti-proliferative effect on Panc-1
Protocol: as §1, §2, §3

[4] = tested on: human colorectal cancer cell line HT29; test: cells; assay type: cell-based; settings: for IC50: Homo sapiens, HT-29, MTT; for anti-proliferative effect on HT29 (in words): colorectal cancer
Protocol: as §1, §2, §3

[5] = Mus musculus, S-180, mice, iv, read-out: Inhibition rate (%) S180 sarcoma
[6] = NCI-H460, MTT, 48 hours, unit inferred, read-out: IC50 and 95% confidence limits, NCI-H460 cells
[7] = NCI-H460, MTT, cultured for 48 hours, value (95% confidence limit), Table 2, read-out: IC50 Lung cancer NCI-H460
[8] = 48 hours, read-out: IC50 and 95% confidence limit, anti-proliferative effect on HT29
[9] = cultured for 48 hours, value (95% confidence limit), Table 2, read-out: IC50 Colorectal cancer HT-29
[10] = MCF7, MTT, 48 hours, unit inferred, read-out: IC50 with 95% confidence limits, MCF7 cells
[11] = MCF7, MTT, cultured for 48 hours, value (95% confidence limit), Table 2, read-out: IC50 Breast cancer MCF7
[12] = Mus musculus, S-180, mice, ip, read-out: Inhibition rate (%) S180 sarcoma

SMILES: O=P1(N(CCCl)CCCl)NCCCO1 (stereo not shown) [CTX, Cyclophosphamide, reference compound]
- inhibition in vivo at 15 mg/kg (mice sarcoma S180; [5]): < 40%
- IC50 ([1]; NCI-H460, 48 h, read-out: IC50 Lung cancer NCI-H460): 4.3 µM
- IC50 ([1]; NCI-H460, 48 h, read-out: IC50 and 95% confidence limit, NCI-H460 cells): 4.3 µg/mL
- IC50 ([2]; MCF7, 48 h, read-out: IC50 and 95% confidence limit, MCF7 cells): 0.92 µg/mL

SMILES: CCOC(=O)c1nn(CO)c2c(=O)n(C3OC3CO)nnc12 (stereo not shown) [Example 7, ethyl 7-(hydroxymethyl)-2-(3-(hydroxymethyl)oxiran-2-yl)-1-oxo-2,7-dihydro-1H-pyrazolo[4,3-d][1,2,3]triazine-5-carboxylate]
- IC50 [3]: 51.3 µg/mL (≈ 165 µM)
- IC50 [1, 6]: 5.18 µM
- IC50 [1, 7]: 5.18 µM
- inhibitory effect on NCI-H460 cells (in words) [1]: more sensitive to NCI-H460 cells
- IC50 [4, 8]: 18.8 µg/mL
- IC50 [4, 9]: 18.8 µM
- anti-proliferative effect on HT29 (in words) [4]: relatively weak
- IC50 [2, 10]: 6.18 µM
- IC50 [2, 11]: 6.18 µM

SMILES: Nc1nn(O)c2c(=O)n(C3OC(CO)C(O)C3O)nnc12 (stereo not shown) [Example 15, 7-amino-3-(3,4-dihydroxy-5-(hydroxymethyl)tetrahydrofuran-2-yl)-5-hydroxy-3H-pyrazolo[4,3-d][1,2,3]triazin-4(5H)-one]
- inhibition in vivo at 50 mg/kg (mice sarcoma S180; Mus musculus, S-180, mice, iv, 50 mg/kg, read-out: Inhibition rate (%) S180 sarcoma): < 40%
- in-vivo anti-tumor efficacy, statistical significance (in words) (mice sarcoma S180): statistically significant
- IC50 [3]: 2.68 µg/mL (≈ 8.93 µM)
- anti-proliferative effect on Panc-1 (in words) ([3]; pancreatic cancer): higher inhibition activity
- IC50 [1, 6]: 22 µM
- IC50 [1, 7]: 22 µM
- inhibitory effect on NCI-H460 cells (in words) [1]: more sensitive to NCI-H460 cells
- IC50 [4, 8]: 3.92 µg/mL
- IC50 [4, 9]: 3.92 µM
- anti-proliferative effect on HT29 (in words) [4]: close values to CTX; also recorded: higher inhibition activity
- IC50 [2, 10]: 2.73 µM
- IC50 [2, 11]: 2.73 µM

SMILES: CCCc1nn(C(C(=O)O)P(=O)(OCC)OCC)c2c(=O)n(C3CCC(CO)O3)nnc12 (stereo not shown) [Example 82, 2-(diethoxyphosphoryl)-2-(3-(5-(hydroxymethyl)tetrahydrofuran-2-yl)-4-oxo-7-propyl-3H-pyrazolo[4,3-d][1,2,3]triazin-5(4H)-yl)acetic acid]
- inhibition in vivo at 15 mg/kg (mice sarcoma S180; [5]): < 20%
- IC50 [3]: 53 µg/mL (≈ 112 µM)
- IC50 [1, 6]: 60.5 µM
- IC50 [1, 7]: 60.5 µM
- IC50 [4, 8]: 10.2 µg/mL
- IC50 [4, 9]: 13.1 µM
- anti-proliferative effect on HT29 (in words) [4]: relatively weak
- IC50 [2, 10]: 34.3 µM
- IC50 [2, 11]: 34.3 µM

SMILES: Nc1nn(O)c2c(=O)n(C3CSC(CO)O3)nnc12 (stereo not shown) [Example 89, 7-amino-5-hydroxy-3-(2-(hydroxymethyl)-1,3-oxathiolan-5-yl)-3H-pyrazolo[4,3-d][1,2,3]triazin-4(5H)-one]
- inhibition in vivo at 100 mg/kg (mice sarcoma S180; [12]): < 40%
- in-vivo anti-tumor efficacy, statistical significance (in words) (mice sarcoma S180): statistically significant
- IC50 [3]: 10 µg/mL (≈ 35 µM)
- IC50 [1, 6]: 8.52 µM
- IC50 [1, 7]: 8.52 µM
- IC50 [4, 8]: 13.1 µg/mL
- IC50 [4, 9]: 10.2 µM
- anti-proliferative effect on HT29 (in words) [4]: relatively weak
- IC50 [2, 10]: 67.5 µM
- IC50 [2, 11]: 67.5 µM

SMILES: CCCn1nnc2c(=O)n(C3CCC(COC(C(=O)O)P(=O)(NC(C)C)NC(C)C)O3)nnc21 (stereo not shown) [Example 154, 2-(bis(isopropylamino)phosphoryl)-2-((5-(7-oxo-3-propyl-3H-[1,2,3]triazolo[4,5-d][1,2,3]triazin-6(7H)-yl)tetrahydrofuran-2-yl)methoxy)acetic acid]
- inhibition in vivo at 100 mg/kg (mice sarcoma S180; [12]): < 20%

SMILES: CC(=O)O[C@H]1C(=O)[C@@]2(C)[C@H]([C@H](OC(=O)c3ccccc3)[C@]3(O)C[C@H](OC(=O)[C@H](O)[C@@H](NC(=O)c4ccccc4)c4ccccc4)C(C)=C1C3(C)C)[C@]1(OC(C)=O)CO[C@@H]1C[C@@H]2O [Taxol, Paclitaxel, reference compound]
- inhibition in vivo at 20 mg/kg (mice sarcoma S180; Mus musculus, S-180, mice, ip, 20 mg/kg, read-out: Inhibition rate (%) S180 sarcoma): < 40%
